According to patent US10233180B2, “Substituted nitrogen-containing heterocyclic derivatives, pharmaceutical compositions comprising the same and applications of antitumor thereof” (ZHEJIANG UNIVERSITY, priority 2014, dated 2019):

Assays:
Akt1 = biological target: T1, Akt1 (Homo sapiens, UniProt P31749); assay: AKT1/PKBα KinEASE FP Fluorescein Green Assay (fluorescence polarization kinase kit); type: biochemical; details: 1 h reaction, read-out: Inhibitory activities against Akt1 (IC50)
T1 construct: purchased 32-021
T1 sequence (P31749 whole entry): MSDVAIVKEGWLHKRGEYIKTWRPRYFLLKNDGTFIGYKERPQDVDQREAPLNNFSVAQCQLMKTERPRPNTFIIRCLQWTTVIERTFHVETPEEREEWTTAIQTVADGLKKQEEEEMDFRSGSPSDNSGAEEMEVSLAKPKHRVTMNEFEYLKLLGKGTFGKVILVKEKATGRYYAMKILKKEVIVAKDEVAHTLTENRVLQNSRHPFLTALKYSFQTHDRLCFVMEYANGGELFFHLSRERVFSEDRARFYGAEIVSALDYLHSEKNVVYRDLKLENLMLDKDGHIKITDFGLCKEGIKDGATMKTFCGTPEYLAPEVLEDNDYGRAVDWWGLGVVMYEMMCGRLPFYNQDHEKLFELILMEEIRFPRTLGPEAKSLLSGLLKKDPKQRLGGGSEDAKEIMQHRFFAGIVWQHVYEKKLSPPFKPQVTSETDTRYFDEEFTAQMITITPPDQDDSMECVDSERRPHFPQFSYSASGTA
In short: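 FP competition kinase assay: compounds (50 μM stock) with STK Substrate 3 and ATP, 1 h reaction at room temperature; stopped with stop/antibody mix, 4 h at room temperature, then polarization read. Inhibition derived from polarization values; IC50 calculated; triplicate wells.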

[1] = tested on: Human ovarian cancer cell strain OVCAR-8; assay: MTT assay, inhibition of tumor cell growth in vitro, 72 h; type: cell-based; details: Homo sapiens, OVCAR-8, MTT, read-out: Antitumor proliferative activities of tumor cell (IC50, μM) OVCAR-8
In short: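 OVCAR8 cells in RPMI 1640 plus FBS were seeded at 4000 cells/well and exposed for 72 h at 37 °C to compound at 50, 10, 2, 0.4 and 0.08 μM final, with 1% DMSO as blank. Inhibition was calculated from OD relative to control, and IC50 was derived by the Bliss method.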

[2] = tested on: human colon cancer cell strain HCT-116; assay: as above; type: cell-based; details: Homo sapiens, HCT-116, MTT, read-out: Antitumor proliferative activities of tumor cell (IC50, μM) HCT-116 (converted)
In short: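 Cells in RPMI 1640 with FBS, 4000 cells/well, exposed 72 h at 37 °C, 5% CO2 to final 50, 10, 2, 0.4 and 0.08 μM; 1% DMSO blank. MTT OD gives % inhibition versus control; IC50 derived by Bliss method.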

| SMILES | IC50 (Akt1) | IC50 [1] | IC50 [2] |
| --- | --- | --- | --- |
| Cn1ncc(Cl)c1-c1cnc(C(=O)N[C@@H]2CNCC[C@H]2c2ccc(F)c(F)c2)nc1 [Compound 93, 5-(4-chloro-1-methyl-1H-pyrazol-5-yl)-N-((3S,4S)-4-(3,4-difluorophenyl)piperidin-3-yl)pyrimidine-2-formamide] | 8 nM | 7.89 µM | 5.82 µM |
| Cc1cc(C(=O)N[C@@H]2CNCC[C@H]2c2ccc(F)c(F)c2)ncc1-c1c(Cl)cnn1C [Compound 94, 5-(4-chloro-1-methyl-1H-pyrazol-5-yl)-N-((3S,4S)-4-(3,4-difluorophenyl)piperidin-3-yl)-4-methylpicolinamide] | 7 nM | 1.22 µM | 0.89 µM |
| Cn1ncc(Cl)c1-c1cnc(C(=O)N[C@@H]2CNCC[C@H]2c2ccc(Cl)c(C(F)(F)F)c2)cc1Cl [Compound 95, 4-chloro-5-(4-chloro-1-methyl-1H-pyrazol-5-yl)-N-((3S,4S)-4-(4-chloro-3-(trifluoromethyl)phenyl)piperidin-3-yl)picolinamide] | 17 nM | 0.98 µM | 0.95 µM |
| Cn1ncc(Cl)c1-c1ccc(C(=O)N[C@@H]2CNCC[C@H]2c2ccc(Cl)c(C(F)(F)F)c2)nc1 [Compound 96, 5-(4-chloro-1-methyl-1H-pyrazol-5-yl)-N-((3S,4S)-4-(4-chloro-3-(trifluoromethyl)phenyl)piperidin-3-yl)picolinamide] | 9 nM | 2.41 µM | 0.78 µM |
| Cn1ncc(Cl)c1-c1cnc(C(=O)N[C@@H]2CNCC[C@H]2c2ccc(F)c(F)c2)c(F)c1 [Compound 97, 5-(4-chloro-1-methyl-1H-pyrazol-5-yl)-N-((3S,4S)-4-(3,4-difluorophenyl)piperidin-3-yl)-3-fluoropicolinamide] | 8 nM | 4.89 µM | 4.14 µM |
| CNC(=O)CC1C[C@@H](c2ccc(F)c(F)c2)[C@H](NC(=O)c2ccc(-c3c(Cl)cnn3C)c(Cl)c2)CN1 (stereo partly drawn) [Compound 99, 3-chloro-4-(4-chloro-1-methyl-1H-pyrazol-5-yl)-N-((3S,4S)-4-(3,4-difluorophenyl)-6-(2-(methylamido)-2-oxoethyl)piperidin-3-yl)benzamide] | 7 nM | 3.38 µM | 1.21 µM |
| Cn1ncc(Cl)c1-c1ccc(C(=O)N[C@@H]2CNC(CCO)C[C@H]2c2ccc(F)c(F)c2)cc1 (stereo partly drawn) [Compound 100] | 9 nM | 1.12 µM | 0.42 µM |
| CNS(=O)(=O)CC1C[C@@H](c2ccc(F)c(F)c2)[C@H](NC(=O)c2ccc(-c3c(Cl)cnn3C)c(F)c2)CN1 (stereo partly drawn) [Compound 101] | 7 nM | 0.43 µM | 2.11 µM |
| Cc1cc(C(=O)N[C@@H]2CNC(CCN3CCCCC3)C[C@H]2c2ccc(F)c(F)c2)ccc1-c1c(Cl)cnn1C (stereo partly drawn) [Compound 102, 4-(4-chloro-1-methyl-1H-pyrazol-5-yl)-N-((3S,4S)-4-(3,4-difluorophenyl)-6-(2-(piperidin-1-yl)ethyl)piperidin-3-yl)-3-methylbenzamide] | 8 nM | 0.34 µM | 0.8 µM |
| Cn1ncc(Cl)c1-c1ccc(C(=O)N[C@@H]2CNC(CCNS(C)(=O)=O)C[C@H]2c2cccc(F)c2)cc1Cl (stereo partly drawn) [Compound 103, 3-chloro-4-(4-chloro-1-methyl-1H-pyrazol-5-yl)-N-((3S,4S)-4-(3-fluorophenyl)-6-(2-(methylsulfonamido)ethyl)piperidin-3-yl)benzamide] | 5 nM | 1.11 µM | 2.81 µM |
| CNC(=O)CC1C[C@@H](c2ccc(F)c(F)c2)[C@H](NC(=O)c2cc(-c3c(Cl)cnn3C)c(Cl)o2)CN1 (stereo partly drawn) [Compound 105, 5-chloro-4-(4-chloro-1-methyl-1H-pyrazol-5-yl)-N-((3S,4S)-4-(3,4-difluorophenyl)-6-(2-(methylamido)-2-oxoethyl)piperidin-3-yl)furan-2-formamide] | 51 nM | 1.94 µM | 0.56 µM |
| CN(C)CCC1C[C@@H](c2ccc(Cl)c(Cl)c2)[C@H](NC(=O)c2cc(-c3c(Cl)cnn3C)c(Cl)o2)CN1 (stereo partly drawn) [Compound 107, 5-chloro-4-(4-chloro-1-methyl-1H-pyrazol-5-yl)-N-((3S,4S)-4-(3,4-dichlorophenyl)-6-(2-(dimethylamino)ethyl)piperidin-3-yl)furan-2-formamide] | 14 nM | 1.01 µM | 1.08 µM |
| Cn1ncc(Cl)c1-c1cc(C(=O)N[C@@H]2CNC(CCN3CCCCC3)C[C@H]2c2ccc(Cl)c(Cl)c2)oc1Cl (stereo partly drawn) [Compound 108, 5-chloro-4-(4-chloro-1-methyl-1H-pyrazol-5-yl)-N-((3S,4S)-4-(3,4-dichlorophenyl)-6-(2-(piperidin-1-yl)ethyl)piperidin-3-yl)furan-2-formamide] | 9 nM | 2.04 µM | 0.57 µM |
| Cn1ncc(Cl)c1-c1cc(C(=O)N[C@@H]2CNC(CCN3CCOCC3)C[C@H]2c2ccc(Cl)c(Cl)c2)oc1Cl (stereo partly drawn) [Compound 109, 5-chloro-4-(4-chloro-1-methyl-1H-pyrazol-5-yl)-N-((3S,4S)-4-(3,4-dichlorophenyl)-6-(2-(morpholin-1-yl)ethyl)piperidin-3-yl)furan-2-formamide] | 9 nM | 1.3 µM | 0.78 µM |
| Cn1ncc(Cl)c1-c1cc(C(=O)N[C@@H]2CNC(CCN3CCCC3)C[C@H]2c2ccc(Cl)c(Cl)c2)oc1Cl (stereo partly drawn) [Compound 110, 5-chloro-4-(4-chloro-1-methyl-1H-pyrazol-5-yl)-N-((3S,4S)-4-(3,4-dichlorophenyl)-6-(2-(pyrrolidin-1-yl)ethyl)piperidin-3-yl)furan-2-formamide] | 11 nM | 1.21 µM | 0.89 µM |
| Cn1ncc(Cl)c1-c1cc(C(=O)N[C@@H]2CNC(CCN3CCC(O)CC3)C[C@H]2c2ccc(Cl)c(Cl)c2)oc1Cl (stereo partly drawn) [Compound 114, 5-chloro-4-(4-chloro-1-methyl-1H-pyrazol-5-yl)-N-((3S,4S)-4-(3,4-dichlorophenyl)-6-(2-(4-hydroxylpiperidin-1-yl)ethyl)piperidin-3-yl)furan-2-formamide] | 14 nM | 1.56 µM | 1.1 µM |

Now those with a lower IC50 (Akt1), led by results:

| IC50 (Akt1) | IC50 [1] | IC50 [2] | SMILES |
| --- | --- | --- | --- |
| 4 nM | 1.82 µM | 0.92 µM | CNC(=O)CC1C[C@@H](c2ccc(F)c(F)c2)[C@H](NC(=O)c2ccc(-c3c(Cl)cnn3C)cc2)CN1 (stereo partly drawn) [Compound 98] |
| 3 nM | 1.71 µM | 2.43 µM | CNC(=O)CC1C[C@@H](c2ccc(F)c(F)c2)[C@H](NC(=O)c2cc(-c3c(Cl)cnn3C)c(Cl)s2)CN1 (stereo partly drawn) [Compound 104, 5-chloro-4-(4-chloro-1-methyl-1H-pyrazol-5-yl)-N-((3S,4S)-4-(3,4-difluorophenyl)-6-(2-(methylamido)-2-oxoethyl)piperidin-3-yl)thiophene-2-formamide] |
| 2 nM | 1.02 µM | 2.51 µM | C=CCC1C[C@@H](c2ccc(Cl)c(Cl)c2)[C@H](NC(=O)c2cc(-c3c(Cl)cnn3C)c(Cl)o2)CN1 (stereo partly drawn) [Compound 106, N-((3S,4S)-6-allyl-4-(3,4-dichlorophenyl)piperidin-3-yl)-5-chloro-4-(4-chloro-1-methyl-1H-pyrazol-5-yl)furan-2-formamide] |
| 4 nM | 0.07 µM | 0.49 µM | Cn1ncc(Cl)c1-c1cc(C(=O)N[C@@H]2CNC(CCCO)C[C@H]2c2ccc(Cl)c(Cl)c2)oc1Cl (stereo partly drawn) [Compound 111, 5-chloro-4-(4-chloro-1-methyl-1H-pyrazol-5-yl)-N-((3S,4S)-4-(3,4-dichlorophenyl)-6-(3-hydroxypropyl)piperidin-3-yl)furan-2-formamide] |
| 2 nM | 0.33 µM | 0.84 µM | Cn1ncc(Cl)c1-c1cc(C(=O)N[C@@H]2CNC(CC(O)CO)C[C@H]2c2ccc(Cl)c(Cl)c2)oc1Cl (stereo partly drawn) [Compound 112, 5-chloro-4-(4-chloro-1-methyl-1H-pyrazol-5-yl)-N-((3S,4S)-4-(3,4-dichlorophenyl)-6-(2,3-dihydroxypropyl)piperidin-3-yl)furan-2-formamide] |
| 3 nM | 0.14 µM | 1.72 µM | Cn1ncc(Cl)c1-c1cc(C(=O)N[C@@H]2CNC(CCO)C[C@H]2c2ccc(Cl)c(Cl)c2)oc1Cl (stereo partly drawn) [Compound 113, 5-chloro-4-(4-chloro-1-methyl-1H-pyrazol-5-yl)-N-((3S,4S)-4-(3,4-dichlorophenyl)-6-(2-hydroxyethyl)piperidin-3-yl)furan-2-formamide] |
| 0.8 nM | 0.78 µM | 0.56 µM | Cn1ncc(Cl)c1-c1cc(C(=O)N[C@@H]2CNC(CCN3CCCC(O)C3)C[C@H]2c2ccc(Cl)c(Cl)c2)oc1Cl (stereo partly drawn) [Compound 115, 5-chloro-4-(4-chloro-1-methyl-1H-pyrazol-5-yl)-N-((3S,4S)-4-(3,4-dichlorophenyl)-6-(2-(3-hydroxylpiperidin-1-yl)ethyl)piperidin-3-yl)furan-2-formamide] |
| 1 nM | 3.68 µM | 5.01 µM | Cn1ncc(Cl)c1-c1cc(C(=O)N[C@@H]2CNC(CC(=O)O)C[C@H]2c2ccc(Cl)c(Cl)c2)oc1Cl (stereo partly drawn) [Compound 116, 2-((4S,5S)-5-(5-chloro-4-(4-chloro-1-methyl-1H-pyrazol-5-yl)furan-2-formamide)-4-(3,4-dichlorophenyl)piperidin-2-yl)acetic acid] |
